Measured values: publication PMC12588083, “Validated antimalarial drug target discovery using genome-scale metabolic modeling” (Antimicrobial Agents and Chemotherapy, 2025)
Entries after “also recorded” stand apart in the source; their conditions may differ.

What was measured:
P. falciparum 3D7 = test: Antiplasmodial activity (IC50), SYBR Green fluorescence, 48 hours; format: cell-based, Plasmodium falciparum
Protocol: P. falciparum 3D7 parasites underwent two synchronization cycles with D-sorbitol initiating the inhibitor testing. Parasitemia and hematocrit were adjusted to 0.5% and 3%, respectively. Synchronized ring parasites were cultured in 96-well plates in complete RPMI medium with varying inhibitor concentrations. Inhibitor stock solutions, mostly at 100 mM, were prepared in DMSO. […] Triplicate wells were prepared for each compound. Negative controls included wells with uninfected red cells (3% hematocrit) in complete RPMI medium.
Culture plates were incubated in a chamber with controlled gas conditions at 37°C. After 48 hours, parasites were quantified using a fluorescence-based assay with SYBR Green dye as previously described ([51]). Lysis buffer containing SYBR Green was added to each well, and plates were incubated at room temperature for 45 minutes and protected from the light. Fluorescence was measured using a microplate reader (POLARstar OPTIMA, BMG Labtech) with excitation at 485 nm and detection at 520 nm. Background fluorescence of uninfected red cells was subtracted, and dose-response curves were plotted against inhibitor concentration. IC50 values were determined using nonlinear regression curve fitting in GraphPad Prism software.

[1] = test system: recombinant PfUCK (P. falciparum UMP-CMP kinase, PfUCK-Δ23); test: Inhibition constant (Ki) determination, coupled PK/LDH NADH assay, recombinant PfUCK; format: biochemical, Plasmodium falciparum; conditions: hUCK versus PfUCK
Protocol: (§1) The hydrophobic core at the protein’s N-terminus may cause poor expression and low solubility in E. coli. Therefore, a truncated gene was created where the ORF began at amino acid residues 24–371, encoding a 348 amino acid protein. […] Briefly, protein expression was induced with isopropyl-D-thiogalactoside, incubated at 16°C with shaking at 200 RPM for 20 hours, and the cell pellet resuspended in binding buffer (50 mM Tris [pH 7.6], 300 mM NaCl, 20 mM imidazole, 5% glycerol, and 0.075% β-mercaptoethanol), with cell disruption using an Avestin C3 Cell Disrupter. Cell debris was removed, and the UCK was purified by Ni-NTA affinity purification. The protein was eluted from the column using a linear gradient of imidazole ([…]) in elution buffer (50 mM Tris [pH 7.6], 300 mM NaCl, 5% glycerol, and 0.075% β-mercaptoethanol). […] The concentrated protein was then stored at −70°C in a storage buffer (25 mM Tris-HCl, 50 mM KCl, and 20% glycerol; pH 7.0).
(§2) The final concentration of dimethyl sulfoxide (Merck, Catalog number 472301) in the assay reaction was maintained at 1%.

[2] = target: recombinant PfUCK (P. falciparum UMP-CMP kinase, PfUCK-Δ23) (Plasmodium falciparum, UniProt Q8I231); test: as above; format: biochemical
Protocol: as §1, §2

[3] = target: T1, recombinant human UMP-CMP kinase (hUCK) (Homo sapiens, UniProt P30085); test: Inhibition constant (Ki) determination, coupled PK/LDH NADH assay, hUCK; format: biochemical; conditions: for Ki—hUCK: 1 mM CMP, competitive equation
T1 construct: constructed by amplifying its ORF from an available commercial plasmid; His tag (vector-encoded by pET28a; the text names only the HisPur Ni-NTA and His GraviTrap TALON columns) (N); host or cells: E. coli BL21 (DE3) with extra argU, ileY and leuW tRNA genes
T1 sequence (P30085 1-228 isoform P30085-3): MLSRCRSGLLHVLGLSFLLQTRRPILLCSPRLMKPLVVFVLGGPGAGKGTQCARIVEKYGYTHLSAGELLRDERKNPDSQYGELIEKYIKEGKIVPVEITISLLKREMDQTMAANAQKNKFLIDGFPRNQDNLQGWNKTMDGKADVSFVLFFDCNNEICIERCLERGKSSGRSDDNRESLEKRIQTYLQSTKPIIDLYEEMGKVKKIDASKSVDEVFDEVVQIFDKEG
Protocol: The protein was purified with a HisPur Ni-NTA Spin column, and elution was performed with 250 mM imidazole in elution buffer (50 mM Tris-HCl, 750 mM NaCl, and 10% glycerol; pH 7.5). The protein was further purified using a His GraviTrap TALON column (Cytiva, catalog number 29-0005-94). The buffers employed were binding buffer (50 mM potassium phosphate [KP], 100 mM NaCl, and 10% glycerol; pH 8.0), washing buffer (50 mM KP, 500 mM NaCl, 10 mM imidazole, and 10% glycerol; pH 8.0), and elution buffer (50 mM Tris-HCl, 750 mM NaCl, 250 mM imidazole, and 10% glycerol; pH 7.5). The purified protein was desalted using a PD-10 column (Sephadex G25 M; Cytiva, catalog number 17085101) stored in a storage buffer (25 mM Tris-HCl, 50 mM KCl, and 20% glycerol; pH 7.0). Purity of the recombinant protein was verified via SDS-PAGE (Mini-Protein TGX Precast Gels; Bio-Rad), and its concentration was determined using a Bradford protein assay (Bio-Rad, catalog number 5000006).
as §2

hUCK [4] = target: T2, hUCK (Homo sapiens, UniProt P30085); conditions: hUCK versus PfUCK
Protocol: (§3) Enzyme activity was assessed using an indirect spectrophotometric assay that measured NADH absorbance at 340 nm coupled to pyruvate kinase/lactate dehydrogenase. The reaction mixture contained 50 mM Tris-HCl (pH 7.6), 50 mM KCl, 10 mM MgCl2, 5 mM ATP, 0.2 mM NADH, 1 mM phosphoenolpyruvate, 10 mM dithiothreitol, pyruvate kinase (10 U/mL), lactate dehydrogenase (15 U/mL), and purified UCK (OD340/min of 0.04–0.06). […] The decrease in absorbance was monitored using a UV/visible spectrophotometer (Ultrospec 2100 Pro).
(§4) Then, a reaction rate was calculated from the decrease in absorbance at 340 nm (εNADH = 6.22 × 10^−3 M^−1 cm^−1) compared to the control reaction in which UCK was absent. The maximum reaction rate (Vmax) and Michaelis constant (Km) values were calculated using the Michaelis-Menten equation (v = Vmax[S] /Km+ [S]), where v is the reaction rate and [S] is the substrate concentration.

hUCK [5] = target: T2, hUCK; conditions: read-out: Km hUCK; phosphate acceptor; literature values ref 66; cited from earlier work
PfUCK = target: T3, PfUCK (Plasmodium falciparum, UniProt Q8I231); test: UCK characterization: Km for nucleoside monophosphate substrates, PfUCK; format: biochemical; conditions: UMP versus CMP
T3 sequence (Q8I231 24-371): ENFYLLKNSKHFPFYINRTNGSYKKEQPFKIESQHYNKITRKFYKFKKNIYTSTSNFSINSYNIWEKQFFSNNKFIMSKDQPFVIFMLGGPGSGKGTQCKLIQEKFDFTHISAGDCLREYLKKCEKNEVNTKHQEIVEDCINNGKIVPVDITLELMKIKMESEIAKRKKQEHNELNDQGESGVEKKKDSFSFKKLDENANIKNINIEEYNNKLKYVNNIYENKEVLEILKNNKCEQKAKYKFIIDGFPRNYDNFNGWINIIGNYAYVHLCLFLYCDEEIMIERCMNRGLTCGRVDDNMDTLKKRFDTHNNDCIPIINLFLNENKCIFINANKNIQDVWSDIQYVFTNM
Protocol: as §3, §4

[6] = substrate: Nc1ccn([C@H]2C[C@H](O)[C@@H](COP(=O)(O)O)O2)c(=O)n1; test: as above; format: biochemical, Plasmodium falciparum; conditions: other: phosphate acceptor, ATP as phosphate donor, 25°C, pH 7.6
Protocol: as §3, §4

[7] = substrate: O=c1ccn([C@@H]2O[C@H](COP(=O)(O)O)[C@@H](O)[C@H]2O)c(=O)[nH]1; test: as above; format: biochemical, Plasmodium falciparum; conditions: other: phosphate acceptor, ATP as phosphate donor, 25°C, pH 7.6
Protocol: as §3, §4

[8] = substrate: O=c1ccn([C@@H]2O[C@H](COP(=O)(O)O)[C@@H](O)[C@H]2O)c(=O)[nH]1; test: purified protein, by the assay type; conditions: other: phosphate acceptor, ATP as phosphate donor, 25°C, pH 7.6
[9] = Plasmodium falciparum, 3D7, 48 h, Supplementary Table 7, benzoylacetonitrile derivatives
[10] = Supplementary Table 7, benzoylacetonitrile derivatives
[11] = Table 4, benzoylacetonitrile derivatives
[12] = Plasmodium falciparum, 3D7, 48 h, Table 5
[13] = Table 3, acrylamide and chloroacetamide compounds

## N#CCC(=O)c1cccc(Cl)c1 [Compound C7]
P. falciparum 3D7; [9]
  IC50: > 310 µM
P. falciparum 3D7; [10]
  IC50: 380 ± 50.1 µM
[1]; Table 4
  Selectivity index: >235
[2]
  Ki: 4.26 ± 0.55 µM
[3]; [11]
  Ki—hUCK: little or no inhibition of hUCK; also recorded: No inhibition at 1 mM

## N#CCC(=O)c1ccc(Cl)c(Cl)c1 [Compound C12]
P. falciparum 3D7; [10]
  IC50 - P. falciparum (3D7), µM: no inhibition at 0.5 mM
[1]; Table 4
  Selectivity index: >89
[2]
  Ki: 11.3 ± 2.22 µM
[3]; [11]
  Ki—hUCK: No inhibition at 1 mM

## O=C(CCl)NCc1cc(=O)n2ccccc2n1 [Compound C21]
P. falciparum 3D7; [12]
  IC50: 15.6 ± 1.13 µM
[1]; Table 3
  Selectivity index: 0.22
[2]
  Ki: 13.7 ± 3.18 µM
[3]
  Ki: 2.98 ± 0.5 µM
[3]; [13]
  Ki—hUCK: inhibited hUCK activity

## N#CCC(=O)c1cccc(F)c1 [Compound C38]
P. falciparum 3D7; [9]
  IC50: > 310 µM
P. falciparum 3D7; [10]
  IC50: 339 ± 26.4 µM
[2]
  Ki: 1.66 ± 0.27 µM
[3]; [11]
  Ki—hUCK: little or no inhibition of hUCK; also recorded: No inhibition at 0.5 mM

## N#CCC(=O)c1ccccc1Cl [Compound C39]
P. falciparum 3D7; [10]
  IC50 - P. falciparum (3D7), µM: no inhibition at 1 mM
[1]; Table 4
  Selectivity index: >275
[2]
  Ki: 3.64 ± 0.59 µM
[3]; [11]
  Ki—hUCK: little or no inhibition of hUCK; also recorded: No inhibition at 1 mM

## C=CC(=O)NCc1cc(=O)n2ccccc2n1 [Compound C43]
P. falciparum 3D7; [12]
  IC50: > 1000 µM
[1]; Table 3
  Selectivity index: 1.09
[2]
  Ki: 4.15 ± 0.26 µM
[3]
  Ki: 4.55 ± 0.52 µM
[3]; [13]
  Ki—hUCK: inhibited hUCK activity

## O=c1ccn([C@@H]2O[C@H](COP(=O)(O)O)[C@@H](O)[C@H]2O)c(=O)[nH]1 [UMP]
hUCK [4]
  hUCK Km fold greater than PfUCK: 2.3 fold
hUCK [5]
  Km: 45 ± 10 µM
PfUCK
  fold higher Km than CMP, PfUCK: 3.9 fold

## Nc1ccn([C@H]2C[C@H](O)[C@@H](COP(=O)(O)O)O2)c(=O)n1 [dCMP]
hUCK [5]
  Km: 900 ± 100 µM

## CMP
hUCK [5]
  Km: 20 ± 5 µM

B1: PfUCK (Plasmodium falciparum 3D7) (protein)
chain: T3 sequence (Q8I231 24-371)
[6]
  Km: 428 ± 11 µM
[7]
  Km: 110 ± 14 µM

B2: hUCK (Homo sapiens) (protein)
chain: T1 sequence (P30085 1-228 isoform P30085-3)
[8]
  Km: 47.7 ± 3.2 µM
